Data taken from publication PMC7445743 (Journal of Medicinal Chemistry, 2020).
Counter-ions that a name gives are not always drawn.

What was measured:
Details in all cases: supplement CSV
DAPK3 = DAPK3 (Homo sapiens, UniProt O43293)
GSK3β = GSK3β (Homo sapiens, UniProt P49841)
CaMK4 = target: T1, CaMK4 (Homo sapiens, UniProt Q16566)
T1 sequence (Q16566 1-473): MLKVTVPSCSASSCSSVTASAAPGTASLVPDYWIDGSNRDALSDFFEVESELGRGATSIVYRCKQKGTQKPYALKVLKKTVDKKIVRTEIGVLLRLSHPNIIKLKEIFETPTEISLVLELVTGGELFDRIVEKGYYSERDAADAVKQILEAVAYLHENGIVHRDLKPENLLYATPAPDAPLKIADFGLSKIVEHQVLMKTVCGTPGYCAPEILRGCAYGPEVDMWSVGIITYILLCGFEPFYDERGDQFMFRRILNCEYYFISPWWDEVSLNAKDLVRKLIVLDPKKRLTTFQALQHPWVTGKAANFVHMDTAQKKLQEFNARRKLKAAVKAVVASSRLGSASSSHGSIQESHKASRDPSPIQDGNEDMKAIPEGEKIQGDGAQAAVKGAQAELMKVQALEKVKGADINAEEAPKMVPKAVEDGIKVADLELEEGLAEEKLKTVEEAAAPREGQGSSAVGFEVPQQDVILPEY

DCLK1 = target: T2, DCLK1 (Homo sapiens, UniProt O15075)
T2 sequence (O15075 1-740): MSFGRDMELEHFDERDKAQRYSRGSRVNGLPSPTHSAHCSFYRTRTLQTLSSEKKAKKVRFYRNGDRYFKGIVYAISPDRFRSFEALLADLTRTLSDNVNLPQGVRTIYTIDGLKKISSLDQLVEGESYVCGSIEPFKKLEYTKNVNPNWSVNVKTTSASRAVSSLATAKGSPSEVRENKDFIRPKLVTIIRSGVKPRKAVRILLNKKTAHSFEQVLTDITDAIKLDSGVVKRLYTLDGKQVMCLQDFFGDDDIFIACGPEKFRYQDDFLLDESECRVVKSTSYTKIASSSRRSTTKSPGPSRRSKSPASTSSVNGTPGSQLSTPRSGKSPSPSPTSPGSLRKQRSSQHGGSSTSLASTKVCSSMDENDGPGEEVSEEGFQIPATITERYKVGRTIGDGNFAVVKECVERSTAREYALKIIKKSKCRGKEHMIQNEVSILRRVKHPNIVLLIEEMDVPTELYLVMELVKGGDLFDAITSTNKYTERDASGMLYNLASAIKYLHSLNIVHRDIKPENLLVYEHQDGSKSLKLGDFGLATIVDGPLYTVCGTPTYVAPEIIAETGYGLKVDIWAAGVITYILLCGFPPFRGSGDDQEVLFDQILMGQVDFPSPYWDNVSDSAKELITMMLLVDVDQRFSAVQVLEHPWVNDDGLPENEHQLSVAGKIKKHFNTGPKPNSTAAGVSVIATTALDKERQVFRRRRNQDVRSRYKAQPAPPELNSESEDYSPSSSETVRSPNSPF

CAMK1G = CAMK1G (Homo sapiens, UniProt Q96NX5)
CAMK2A = CAMK2A (Homo sapiens, UniProt Q9UQM7)
PAK4 = PAK4 (Homo sapiens, UniProt O96013)
Sequence of PAK4 (O96013 whole entry): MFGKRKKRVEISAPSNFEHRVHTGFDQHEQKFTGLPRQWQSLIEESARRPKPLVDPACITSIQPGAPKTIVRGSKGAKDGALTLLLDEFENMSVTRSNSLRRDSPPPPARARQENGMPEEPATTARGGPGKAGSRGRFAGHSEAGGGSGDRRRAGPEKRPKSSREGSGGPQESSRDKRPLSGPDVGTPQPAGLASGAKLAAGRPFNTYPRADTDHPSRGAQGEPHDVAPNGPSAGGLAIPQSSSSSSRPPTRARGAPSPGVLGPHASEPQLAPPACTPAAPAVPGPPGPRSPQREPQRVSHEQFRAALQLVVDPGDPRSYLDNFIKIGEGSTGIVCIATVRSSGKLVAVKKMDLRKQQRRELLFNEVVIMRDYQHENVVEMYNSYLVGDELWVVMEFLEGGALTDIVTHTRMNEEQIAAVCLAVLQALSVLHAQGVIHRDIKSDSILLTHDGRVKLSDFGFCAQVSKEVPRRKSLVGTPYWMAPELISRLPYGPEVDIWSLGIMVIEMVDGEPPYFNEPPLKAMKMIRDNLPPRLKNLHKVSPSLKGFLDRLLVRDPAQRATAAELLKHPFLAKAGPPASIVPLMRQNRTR

Sequence of CAMK2A (Q9UQM7 whole entry): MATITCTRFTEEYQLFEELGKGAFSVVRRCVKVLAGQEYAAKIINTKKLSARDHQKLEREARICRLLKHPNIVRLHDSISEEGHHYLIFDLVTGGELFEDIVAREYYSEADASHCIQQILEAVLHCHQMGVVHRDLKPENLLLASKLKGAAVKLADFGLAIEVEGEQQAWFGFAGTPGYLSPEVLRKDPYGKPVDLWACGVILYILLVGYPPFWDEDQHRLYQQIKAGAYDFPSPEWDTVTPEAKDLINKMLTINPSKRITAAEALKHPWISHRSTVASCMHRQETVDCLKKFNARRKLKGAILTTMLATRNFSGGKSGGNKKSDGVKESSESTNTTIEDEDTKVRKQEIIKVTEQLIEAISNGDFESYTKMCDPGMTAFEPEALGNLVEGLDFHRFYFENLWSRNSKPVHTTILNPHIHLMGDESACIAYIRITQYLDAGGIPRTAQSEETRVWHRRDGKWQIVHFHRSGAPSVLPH
Sequence of DAPK3 (O43293 whole entry): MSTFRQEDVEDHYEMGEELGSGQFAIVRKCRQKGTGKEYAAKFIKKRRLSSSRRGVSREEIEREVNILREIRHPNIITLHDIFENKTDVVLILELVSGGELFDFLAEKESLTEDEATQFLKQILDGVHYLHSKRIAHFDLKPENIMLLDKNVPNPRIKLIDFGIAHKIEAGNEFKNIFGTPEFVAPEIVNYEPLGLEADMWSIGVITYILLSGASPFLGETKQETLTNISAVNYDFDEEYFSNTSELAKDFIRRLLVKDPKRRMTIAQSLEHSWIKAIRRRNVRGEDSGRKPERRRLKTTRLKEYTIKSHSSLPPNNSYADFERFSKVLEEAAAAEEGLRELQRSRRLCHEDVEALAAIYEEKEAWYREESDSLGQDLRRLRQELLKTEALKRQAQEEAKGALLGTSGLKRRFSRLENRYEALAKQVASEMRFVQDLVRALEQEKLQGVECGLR
Sequence of GSK3β (P49841 whole entry, species assumed): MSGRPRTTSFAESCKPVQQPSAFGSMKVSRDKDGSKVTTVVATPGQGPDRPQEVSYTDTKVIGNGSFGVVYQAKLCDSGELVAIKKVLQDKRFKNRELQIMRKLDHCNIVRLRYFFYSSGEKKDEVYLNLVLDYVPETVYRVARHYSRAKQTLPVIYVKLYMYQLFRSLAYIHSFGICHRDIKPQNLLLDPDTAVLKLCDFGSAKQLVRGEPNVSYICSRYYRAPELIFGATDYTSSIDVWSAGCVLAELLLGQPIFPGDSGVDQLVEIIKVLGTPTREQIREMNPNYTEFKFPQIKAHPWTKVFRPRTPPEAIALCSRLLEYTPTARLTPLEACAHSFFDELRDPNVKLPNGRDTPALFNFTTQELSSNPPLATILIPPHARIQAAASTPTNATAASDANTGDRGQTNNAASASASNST
Sequence of CAMK1G (Q96NX5 whole entry): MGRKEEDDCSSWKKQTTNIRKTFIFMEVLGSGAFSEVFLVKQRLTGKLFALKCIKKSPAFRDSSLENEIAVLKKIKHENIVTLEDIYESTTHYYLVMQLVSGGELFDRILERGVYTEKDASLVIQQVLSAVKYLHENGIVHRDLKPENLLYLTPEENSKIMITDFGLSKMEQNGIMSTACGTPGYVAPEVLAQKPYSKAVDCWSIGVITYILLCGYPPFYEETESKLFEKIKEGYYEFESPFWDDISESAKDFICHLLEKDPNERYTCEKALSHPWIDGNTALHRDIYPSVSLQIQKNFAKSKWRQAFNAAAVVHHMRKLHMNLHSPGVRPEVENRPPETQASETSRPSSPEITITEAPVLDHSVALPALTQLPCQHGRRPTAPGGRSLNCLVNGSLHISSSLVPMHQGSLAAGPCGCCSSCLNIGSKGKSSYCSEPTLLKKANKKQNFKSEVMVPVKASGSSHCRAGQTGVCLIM

CC(C)(C)c1cccc(Nc2nc(N3CCC[C@H](N)C3)ncc2C(N)=O)c1 [Compound 10, (S)-2-(3-Aminopiperidin-1-yl)-4-((3-(tert-butyl)phenyl)amino)pyrimidine-5-carboxamide Hydrochloride]
DAPK3 Tm (DAPK3): 5.43 0C
GSK3B Tm (GSK3β): 0.67 0C
CAMK4 Tm (CaMK4): 3.78 0C
DCAMKL1 Tm (DCLK1): 0.3 0C
CAMK1G Tm (CAMK1G): 9.24 0C
CAMK2A Tm (CAMK2A): 0.77 0C
PAK4 Tm (PAK4): 1.24 0C

CNC(=O)c1cnc(NCCN)nc1Nc1cccc(C(F)(F)F)c1 [Compound 2, 2-((2-Aminoethyl)amino)-N-methyl-4-((3-(trifluoromethyl)phenyl)amino)pyrimidine-5-carboxamide, reference compound]
CAMK1G Tm (CAMK1G): 0.15 0C
CAMK2A Tm (CAMK2A): -0.22 0C

CS(=O)(=O)c1cccc(Nc2nc(N3CCC[C@H](N)C3)ncc2C(N)=O)c1 [Compound 11, (S)-2-(3-Aminopiperidin-1-yl)-4-((3-(methylsulfonyl)phenyl)amino)pyrimidine-5-carboxamide]
DAPK3 Tm (DAPK3): 6.85 0C
GSK3B Tm (GSK3β): 1.4 0C
CAMK4 Tm (CaMK4): 4.49 0C
DCAMKL1 Tm (DCLK1): -0.09 0C
CAMK1G Tm (CAMK1G): 7.26 0C
CAMK2A Tm (CAMK2A): 0.53 0C
PAK4 Tm (PAK4): 3.75 0C

CC(C)c1cc(Nc2nc(N3CCC[C@H](N)C3)ncc2C(N)=O)cc(C(C)C)c1 [Compound 15, (S)-2-(3-Aminopiperidin-1-yl)-4-((3,5-diisopropylphenyl)amino)pyrimidine-5-carboxamide]
DAPK3 Tm (DAPK3): 8.08 0C
GSK3B Tm (GSK3β): -0.2 0C
CAMK4 Tm (CaMK4): 6.46 0C
DCAMKL1 Tm (DCLK1): 1.96 0C
CAMK1G Tm (CAMK1G): 10.33 0C
CAMK2A Tm (CAMK2A): 2.19 0C
PAK4 Tm (PAK4): 4.76 0C

CC(C)(C#N)c1cccc(Nc2nc(N3CCC[C@H](N)C3)ncc2C(N)=O)c1 [Compound 13, (S)-2-(3-Aminopiperidin-1-yl)-4-((3-(2-cyanopropan-2-yl)phenyl)amino)pyrimidine-5-carboxamide]
DAPK3 Tm (DAPK3): 6.82 0C
GSK3B Tm (GSK3β): 0.46 0C
CAMK4 Tm (CaMK4): 4.38 0C
DCAMKL1 Tm (DCLK1): 0.32 0C
CAMK1G Tm (CAMK1G): 6.35 0C
CAMK2A Tm (CAMK2A): 0.6 0C
PAK4 Tm (PAK4): 1.98 0C

NC(=O)c1cnc(N2CCC[C@H](N)C2)nc1Nc1cc(C(F)(F)F)cc(C(F)(F)F)c1 [Compound 9]
DAPK3 Tm (DAPK3): 8.72 0C
GSK3B Tm (GSK3β): -0.47 0C
CAMK4 Tm (CaMK4): 7.06 0C
DCAMKL1 Tm (DCLK1): 1.22 0C
CAMK1G Tm (CAMK1G): 16.18 0C
CAMK2A Tm (CAMK2A): 1.09 0C
PAK4 Tm (PAK4): 3.17 0C

CN(C)CCN(C)c1ncc(C(N)=O)c(Nc2cccc(C(F)(F)F)c2)n1 [Compound 5, 2-((2-(Dimethylamino)ethyl)(methyl)amino)-4-((3-(trifluoromethyl)phenyl)amino)pyrimidine-5-carboxamide Hydrochloride]
CAMK1G Tm (CAMK1G): 2.78 0C
CAMK2A Tm (CAMK2A): 0.29 0C

CNCCN(C)c1ncc(C(N)=O)c(Nc2cccc(C(F)(F)F)c2)n1 [Compound 4, 2-(Methyl(2-(methylamino)ethyl)amino)-4-((3-(trifluoromethyl)phenyl)amino)pyrimidine-5-carboxamide Hydrochloride]
CAMK1G Tm (CAMK1G): 1.13 0C
CAMK2A Tm (CAMK2A): 0.1 0C

NC(=O)c1cnc(N2CCC[C@H](N)C2)nc1Nc1cccc(-c2ccccc2)c1 [Compound 12, (S)-4-([1,1′-Biphenyl]-3-ylamino)-2-(3-aminopiperidin-1-yl)pyrimidine-5-carboxamide Hydrochloride]
DAPK3 Tm (DAPK3): 8.03 0C
GSK3B Tm (GSK3β): 0.32 0C
CAMK4 Tm (CaMK4): 4.98 0C
DCAMKL1 Tm (DCLK1): 1.64 0C
CAMK1G Tm (CAMK1G): 12.19 0C
CAMK2A Tm (CAMK2A): 2.35 0C
PAK4 Tm (PAK4): 5.67 0C

NC(=O)c1cnc(N2CCCC(N)C2)nc1Nc1cccc(C(F)(F)F)c1 (racemic) [Compound 6, (rac)-2-(3-Aminopiperidin-1-yl)-4-((3-(trifluoromethyl)phenyl)amino)pyrimidine-5-carboxamide Hydrochloride]
CAMK1G Tm (CAMK1G): 8.82 0C
CAMK2A Tm (CAMK2A): 1.21 0C
